Columns and labels:
[1] = tested on: ARPE-19 cells; experiment: Lysosomal pH (pHL) with LysoSensor Yellow/Blue, high through-put screen; assay type: cell-based, human; settings: for effect on pHL of cells treated with tamoxifen: tamoxifen concentration not stated, A68930 and A77636 at 1 μM
Protocol: Lysosensor Yellow/Blue co-localized with the Lysotracker Red dye in small vesicles, with a distribution consistent with lysosomal origin. Measurements of pHL were performed using a high throughput screening (HTS) protocol to maximize output and minimize variation using ARPE-19 cells in 96 well plates. […] Loading for 5 min. at 23° C. with 5 μM lysosensor, followed by 15 min. for internalization, produced stable and reproducible results.
The ratio was converted to pH by calibrating with KCl buffered to pH 4.0-6.0 in the presence of monensin and nigericin. Calibration indicated a baseline pH of 4.4 to 4.5, supporting lysosomal localization. […] NH4Cl decreased the ratios slightly at 380 nm. Nevertheless, absent the addition of the dye, none of these compounds, or any others, altered the fluorescent signal at 340 or 380 nm, showing a specificity of the measured change to pHL. […] This quantification is necessary to predict the potential effectiveness of acidifying drugs to restore lysosomal enzyme activity.
Extensive trials determined that the optimal response is obtained with 5 minute dye loading and 15 minute post-incubation. […] All reagents were from Sigma Chemical Corp. unless otherwise indicated.
In general, each condition below used 3-12 independent wells per plate, in 3-6 separate plates. As levels from individual plates varied, data was normalized to the mean pHL for control wells from each plate. Fluorescent ratios were converted to pH following calibration performed on each plate as described. Incubation with Lysosensor Yellow/Blue was kept constant and all measurements were performed 15 min after removal of dye from the bath to ensure continuity. Significance was determined with a one-way ANOVA and Tukey post test. Drugs were always tested on control cells to ensure modification of healthy RPE cells was minimal, and cells were not exposed to dye to make sure effects were specific. All background was subtracted from the fluorescence excited at 340 and 380 nm independently before calculation of the ratio.

[2] = tested on: RPE cells from ABCA4−/− mice; experiment: Lysosomal pH in fresh RPE cells from ABCA4-/- mice, drug added to the cells; assay type: cell-based, mouse; settings: RPE cells from 11-month-old ABCA4−/− mice
Excerpt: Measurement of pHL from Isolated Mouse Cells: Based on protocols that are used extensively to measure Ca2^+ from retinal ganglion cells (Zhang et al. Invest. Ophthalmol. Vis. Sci. 46:2183-2191 (2005)), cells were fixed on coverslips and mounted on Nikon Eclipse inverted microscope, visualized with a x40 oil-immersion fluorescence objective, and perfused with control solution. The field was alternatively excited at 340 nm and 380 nm, and fluorescence >515 emitted from the region of interest surrounding individual cells is measured with a CCD camera and Imagemaster software (Photon Technologies International, Inc). After baseline levels were recorded for 3-5 minutes in the absence of dye, solution was replaced with 5 μM Lysosensor Yellow/Blue dye for 5 minutes before washing for an additional 15 minutes. The ratios in the control solutions were recorded, and then acidifying drugs were added. Ratios were converted to pH with monensin/nigericin as above.
As a result, lysosomal pH increases early, and is measured in ABCA4^−/− mice at 6, 12 and 18 weeks from RPE cells within 5 hours of sacrifice. […] However, the signal/noise from measurements of isolated cells with the plate reader is not acceptable. Instead, this signal is measured using the microscope-based imaging system, previously used successfully to measure Ca2^+ from freshly isolated retinal ganglion cells (Zhang et al., supra, 2005). […]

[3] = tested on: primate model of the disease; settings: delivered orally; cited from earlier work
[4] = tested on: ARPE-19 cells; experiment: FACS analysis of autofluorescence (excited at 488 nm); assay type: cell-based, human; settings: photoreceptor outer segments plus 10 μM chloroquine, 7 days
Excerpt: To maintain a balance between the synthesis, degradation, and subsequent recycling of cellular products there are a variety of autophagic responses, but all involve degradation of intracellular components via the lysosome. Typically, autophagy involves the formation of a membrane around a targeted region of the cell, separating the contents from the rest of the cytoplasm, and then the resultant vesicle fuses with a lysosome and the contents are subsequently degraded.

[5] = tested on: other P2 receptors; settings: cited from earlier work
[6] = tested on: cAMP in the RPE; experiment: Effect of ATP on cAMP in the RPE; assay type: cell-based
Protocol: P2Y11 Receptor: The initial investigation screened agonists that act at multiple P2 receptors for their effect on pHL using the high through-put assay. BzATP, ATP, ATPγS, ADPγS and 2 MeSATP and AR-C67085 were added at 10, 30, 100 and 300 μM, respectively, and relative actions were compared with published information for the human P2Y11 receptor (von Kugelgen et al, supra, 2000; Communi et al., supra, 1997; Communi et al., Br. J. Pharmacol. 128:1199-206 (1999)). ATP was added in the presence of ecto-ATPase/eNPP inhibitors βγmATP and ARL67156 (100 μM) since they prevent degradation of ATP in these cells. Receptor involvement was confirmed with antagonists suramin, reactive blue 2 and pyridoxal-phosphate-6-azophenyl-2′,4′-disulphonic acid (PPADS; all at 0.1, 1, 10 and 100 μM). Since the finding that ATP had the ability to elevate cAMP in the RPE was novel, the effect of ATP on cAMP was measured directly using the cAMP-Screen Direct Chemiluminescent Immunoassay System kit from Applied Biosystems using an HTS luminometer to measure […]. The role of cAMP was confirmed by inhibiting pKA with 100 μM Rp-8-Br-cAMPS.

[7] = tested on: ABCA4−/− mice; experiment: Oral P2Y12 inhibitor in ABCA4-/- mice, lysosomal pH of RPE cells; assay type: in vivo, mouse
Protocol: In this example the selected P2Y12 inhibitor was clopidogrel (commercially available as Plavix), but the invention need not be so limited, and other P2Y12 inhibitors, such as AR-C66096, may be used. The clopidogrel was given orally at 50 mg/kg and the pH measured from RPE cells that were removed 4 hrs later.

[8] = tested on: ARPE-19 cells; experiment: Clearance (degradation) of calcein-labeled photoreceptor outer segments; assay type: cell-based, human; settings: after 24 hrs
Protocol: Outer Segment Degradation: Bovine retinas were homogenized in 20% sucrose with 130 mM NaCl, 20 mM Tris-HCl, 10 mM glucose, 5 mM taurine and 2 mM MgC12 (pH 7.20). The homogenate was placed in ultracentrifuge tubes with 20%, 27%, 33%, 41%, 50% and 60% sucrose, respectively, and centrifuged for 70 minutes at 28,000 rpm on a SW28 rotor (4° C.). The supernatant was filtered, diluted in 0.02M Tris-HCl buffer (pH 7.2) and centrifuged at 13,000×g for 10 minutes (4° C.). The pellet was resuspended in […], 0.1 mM NaCl and 2.5% sucrose. Outer segments were loaded with 5 μM calcein-AM in PBS for 10 minutes, and spun 2× at 14,000 rpm to wash. Outer segments were then diluted 1:100 in growth medium and added to ARPE-19 cells in 96-well plates.
Isolated bovine outer segments loaded with calcein were supplied to ARPE-19 cells in 96-well plates for 2 hrs, washed 3× and maintained in control medium for an additional 3 hr (see Methods). […] Promising compounds were examined for their effects on cells treated with A2E, although the restoration of pHL is unlikely to remove A2E itself. However, other components of the outer segments are amendable to digestion by lysosomal enzymes at the appropriate pHL, and acidification could minimize the secondary effect of this accumulation.

[9] = tested on: primary cultures of bovine RPE cells; experiment: Lysosomal pH in primary bovine RPE cultures; assay type: cell-based
Protocol: Isolation of Bovine and Mouse RPE Cells: The bovine RPE-choroid and sclera were removed, incubated in 2.5% trypsin at 37° C. in 5% CO2 for 30 min, after which RPE sheets are dissected, washed and plated in 96-well plates with 10% serum medium. Mouse eyes were incubated in DMEM for 3 hrs at room temperature (RT), then in 0.1% trypsin and 0.4 mg/ml collagenase IV with 1 mM EDTA for 45 min at RT. RPE sheets were dissected out, washed, and incubated with 0.25% trypsin/0.02% EDTA in order to obtain a suspension of single cells, then grown as above.
HTS Measurement of pHL: ARPE-19 cells were grown in 96-well plates, rinsed 3× with isotonic solution (IS; prepared from NaCl 105 mM, KCl 5 mM, HEPES Acid 6 mM, Na HEPES 4 mM, NaHCO3 5 mM, mannitol 60 mM, glucose 5 mM, MgCl2 0.5 mM, CaCl2 1.3 mM) and incubated with 5 μM LysoSensor Yellow/Blue (Invitrogen Corp.) diluted with IS. Extensive trials determined that the optimal response is obtained with 5 minute dye loading and 15 minute post-incubation. Fluorescence was measured with a Fluoroskan 96-well Plate Reader (Thermo Electron Corp.). pHL was determined from the ratio of light excited at 340 nm vs 380 nm ([…] em). pHL was calibrated by exposing cells to 10 μM H^+/Na^+ ionophore monensin and 20 μM H^+/K^+ ionophore nigericin in 20 MES, 110 KCl and 20 NaCl at pH 3.0-7.0 for 15 min. All reagents were from Sigma Chemical Corp. unless otherwise indicated.

[10] = tested on: ABCA4−/− mice; experiment: Oral ticagrelor in ABCA4-/- mice, RPE autofluorescence; assay type: in vivo, mouse; settings: 26 month old mice, 12 ug/ml in the water for 4 days, excited with 406 nm laser
Excerpt: Finally, as recorded in the photographic images of FIG. 12F, autofluorescence in untreated ABCA4−/− mice (upper, Con)) were compared with those treated with Brilinta (lower, Bri) in the water.

NC[C@@H]1O[C@H](c2ccccc2)Cc2c1ccc(O)c2O [A68930]
effect on pHL of cells treated with tamoxifen [1]: decreased lysosomal pH
effect on pHL (ratio 340 to 380 nm) [2]: decreased pHL

NC[C@@H]1O[C@H](C23CC4CC(CC(C4)C2)C3)Cc2c1ccc(O)c2O [A77636]
effect on pHL of cells treated with tamoxifen [1]: decreased lysosomal pH
effect on pHL (ratio 340 to 380 nm) [2]: decreased pHL
Parkinsonian activity [3]: reduces Parkinsonian activity

Cl.Clc1cccc(-c2nnnn2Cc2cccnc2)c1Cl [A438079, 3-[[5-(2,3-Dichlorophenyl)-1H-tetrazol-1-yl]methyl]pyridine hydrochloride salt]
effect on pHL rise by P2X7 agonist BzATP ([1]; cells stimulated with BzATP): prevented this rise
effect on autofluorescence enhanced by POS+CHQ [4]: reduced this enhanced autofluorescence
activity at other P2 receptors [5]: devoid of activity at other P2 receptors

Nc1ncnc2c1ncn2[C@@H]1O[C@H](COP(=O)(O)OP(=O)(O)OP(=O)(O)O)[C@@H](O)[C@H]1O [ATP]
effect on lysosomal pH, conditions not stated [1]: acidify lysosomes
effect on cAMP in the RPE [6]: elevate cAMP

COC(=O)[C@H](c1ccccc1Cl)N1CCc2sccc2C1 [clopidogrel]
lysosomal pHL in RPE cells after single oral dose ([7]; 9-11 month old mice, 50 mg/kg orally, single dose, cells removed 4 hrs later): reduced

CC/C(=C(\c1ccccc1)c1ccc(OCCN(C)C)cc1)c1ccccc1 [tamoxifen]
time for elevated lysosomal pH to reach a plateau [1]: 10-15 minutes
effect on pHL, agent alone ([1]; cells without other alkalinizing agent, NH4Cl 10 mM, BAF 200 nM, CHQ 20 μM, CFTR-172 10 μM, LDL 10 μg/ml, others not given): raised pHL
clearance of calcein-labeled outer segments, alkalinizing agent alone [8]: slowed clearance of outer segments
effect on pHL, agent alone [9]: increased pHL

CCCSc1nc(N[C@@H]2C[C@H]2c2ccc(F)c(F)c2)c2nnn([C@@H]3C[C@H](OCCO)[C@@H](O)[C@H]3O)c2n1 [ticagrelor]
lysosomal pH of RPE cells (ratio of pH sensor) after drug in the water ([7]; 20 month old mice, 12 ug/ml in the water for 19 days): reduced lysosomal pH of RPE cells
autofluorescence in RPE cells [10]: decreased autofluorescence
